Assay results taken from article PMC12525867, “Aromaticity Tuning in Biaryl Monophosphines and Their Derivatives” (Molecules, 2025).

Key:
[1] = Cytotoxicity, microculture tetrazolium (MTT) test, VERO; assay type: cell-based; details: African green monkey, ATCC CCL-81; VERO (normal kidney cells), 24 h incubation, MTT; ± SD
Protocol: (§1) The cytotoxicity of biaryl monophosphines was tested in vitro in normal (VERO) and cancer-derived (H1HeLa) cells after 24 h of incubation using a microculture tetrazolium test. Table 2 presents the CC50 (concentrations decreasing the cellular viability by 50%) values calculated from dose–response cytotoxicity curves (Figure 4).
(§2) Cytotoxicity was evaluated using a microculture tetrazolium test as previously described, and details can be found in the Supplementary Materials. The cell lines used in the presented study were acquired from the American Type Culture Collection (ATCC); the one used for cytotoxicity testing included non-cancerous VERO (kidney; ATCC CCL-81) cells and cancer-originating H1HeLa (cervical adenocarcinoma; ATCC CRL-1958) cells. VERO cells were cultured in Dulbecco’s Modified Eagle’s Medium (DMEM; Corning, Tewksbury, MA, USA), while Eagle’s Minimum Essential Medium (MEM; Corning) was used for H1HeLa. Antibiotics (penicillin–streptomycin solution, Corning) and fetal bovine serum (FBS, Corning) were added to cell media. Cells were incubated in a 5% CO2 atmosphere at 37 °C (CO2 incubator, Panasonic Healthcare Co., Tokyo, Japan). Briefly, the monolayers of VERO or H1HeLa cells in 96-well plates (Falcon, Corning) were treated with serial dilutions of selected compounds for 24 h. After this, the medium was removed, the plates were washed with phosphate buffered saline (PBS; Corning), a 10% solution of (3-(4,5-dimethylthiazol-2-yl)-2,5-diphenyltetrazolium bromide (MTT; Sigma-Aldrich, St. Louis, MO, USA) (5 mg/mL) in FBS-free cell media was added, and the incubation continued for the next 4 h. Subsequently, the precipitated formazan crystals were dissolved, and after overnight incubation at 37 °C, the Synergy H1 Multi-Mode Microplate Reader (BioTek Instruments, Inc., Winooski, VT, USA) with Gen5 software (ver. 3.09.07; BioTek Instruments, Inc.) was used for absorbance acquisition (540 and 620 nm). Data was exported to GraphPad Prism (ver. 10) to calculate the CC50 values (50% cytotoxic concentration) from dose–response curves.
(§3) Aromaticity Tuning in Biaryl Monophosphines and Their Derivatives […]
(§4) Cell line maintenance and in vitro experiments
(§5) The cytotoxicity of selected biaryl monophosphines was evaluated in vitro towards normal VERO (ATCC, CCL-81) cells and cancer-derived cell line H1HeLa (cervical adenocarcinoma; ATCC (American Type Culture Collection) CRL-1958) using 3-(4,5-dimethylthiazol-2-yl)-2,5-diphenylte-trazolium bromide (MTT) based protocol.
(§6) Media used for in vitro culturing included Dulbecco's Modified Eagle's Medium (DMEM, Corning, Tewksbury, MA, USA) used for VERO cells and Modified Eagle Medium (MEM, Corning) used for H1HeLa. Cell media used in the experiments were supplemented with antibiotics (Penicil-lin-Streptomycin Solution, Corning) and fetal bovine serum (FBS, Corning) – 10% (cell passaging) and 2% (cell maintenance and experiments). Phosphate-buffered saline (PBS) and trypsin were bought from Corning, whereas MTT (3-(4,5-dimethylthiazol-2-yl)-2,5-diphenyltetrazolium bromide) from Sigma (Sigma-Aldrich, St. Louis, MO, USA). SDS was purchased from PanReac Applichem (Darmstadt, Germany). Incubation was carried out in a 5% CO2 atmosphere at 37°C (CO2 incubator, Panasonic Healthcare Co., Tokyo, Japan).
(§7) Concentrations of cells for passaging were as follows: VERO – 1.5*10^5 cells/mL, H1HeLa – 2*10^5 cells/mL. Routine observations of cell cultures and experiments were carried out using an in-verted microscope (CKX41, Olympus Corporation, Tokyo, Japan) equipped with a ca mera (Moti-cam 3+, Motic, Hong Kong), and the results were recorded (Motic Images Plus 2.0, Motic).
(§8) Stock solutions of biaryl monophosphines were prepared by dissolving the samples in cell culture grade DMSO (PanReac Applichem).
(§9) Evaluation of cytotoxicity
(§10) Cytotoxicity was tested using an MTT-based protocol. The cells were passaged into 96-well plates (Falcon, TC-treated, Corning) and, after overnight incubation, treated with serial dilutions of […]

[2] = system: VERO cells; experiment: as above; assay type: cell-based; details: VERO, 24 h, microscopy
Protocol: as §1, §2, §3, §4, §5, §6, §7, §8, §9, §10

[3] = Cytotoxicity, microculture tetrazolium (MTT) test, H1HeLa; assay type: cell-based; details: human, H1HeLa cells (cervical adenocarcinoma, ATCC CRL-1958); H1HeLa (cervical adenocarcinoma), 24 h incubation, MTT; ± SD
Protocol: as §1, §2, §3, §4, §5, §6, §7, §8, §9, §10

[4] = system: H1HeLa cells; experiment: as above; assay type: cell-based; details: H1HeLa, 24 h, microscopy
Protocol: as §1, §2, §3, §4, §5, §6, §7, §8, §9, §10

[5] = system: P. mirabilis ATCC 12453; experiment: Antibacterial screening, broth microdilution (MIC/MBC); assay type: cell-based, Proteus mirabilis; details: Proteus mirabilis, ATCC12453; P. mirabilis ATCC 12453, MHB, 24 h, 35 °C; read-out: MIC
Protocol: The antimicrobial activities of a series of compounds 1–5 were tested through the utilization of seven reference species, encompassing both Gram-positive (Staphylococcus aureus ATCC 29213, Staphylococcus epidermidis ATCC 12228, Micrococcus luteus ATCC 10240) and Gram-negative (Escherichia coli ATCC 25922, Klebsiella pneumoniae ATCC 13883, Proteus mirabilis ATCC 12453, Acinetobacter baumannii ATCC 19606) bacteria as model microorganisms. For this purpose, microbial suspensions were prepared in sterile saline (0.85% NaCl) with an optical density of 0.5 McFarland standard, yielding a concentration of 150 × 10^6 CFU/mL (CFU, colony-forming units). All of the stock solutions of the tested compounds were dissolved in DMSO. Amoxicillin (Glentham Life Sciences Ltd., Corsham, UK) was used as a positive control.
The MIC values of the tested compounds were determined by serial twofold dilutions of 1–5 in Mueller Hinton Broth (MHB, Biomaxima, Lublin, Poland). The range of final 1–5 concentrations used was from 0.49 up to 1000 μg/mL, and for amoxicillin from 0.12 up to 250 μg/mL in the 96-well microtiter plates (Medlab, Raszyn, Poland), starting with 98 μL MHB and 2 μL bacterial inoculum added to each well. Positive controls consisted of 100 μL MHB in each well with the tested compounds at the same concentration range. The negative controls consisted of 100 μL of MHB only. Each set of tests and controls was established with three replicates. The microtiter plates were then subjected to an incubation period of 24 h at a temperature of 35 ± 2 °C. After incubation, the optical density of the microbial growth was measured at a wavelength of 600 nm using a microplate reader, the Biotek Elx800 (BioTek Instruments, Inc., Winooski, VT, USA). The MIC value was defined as the lowest concentration of the tested compound at which there was no visible growth of the tested microorganisms. The determination of the MIC values was achieved by employing the broth microdilution method, in accordance with the recommendations of the European Committee on Antimicrobial Susceptibility Testing (EUCAST). […] Then, the MHA plates were incubated overnight at 35 ± 2 °C. […] The MIC and MBC values were reported in μg/mL, according to the EUCAST reference.

| SMILES | CC50 at 24 h [1] [µg/mL] | influence on morphology of the cellular monolayer ([2]; 12.5 µg/mL) | CC50 at 24 h [3] [µg/mL] | influence on morphology of the cellular monolayer ([4]; 12.5 µg/mL) | MIC [5] [µg/mL] | influence on morphology of the cellular monolayer ([2]; 1.6 µg/mL) | influence on morphology of the cellular monolayer ([2]; 3.1 µg/mL) | influence on morphology of the cellular monolayer ([2]; 6.3 µg/mL) | influence on morphology of the cellular monolayer ([4]; 1.6 µg/mL) | influence on morphology of the cellular monolayer ([4]; 3.1 µg/mL) | influence on morphology of the cellular monolayer ([4]; 6.3 µg/mL) |
| --- | --- | --- | --- | --- | --- | --- | --- | --- | --- | --- | --- |
| COc1ccccc1-c1c(P(=O)(C2CCCCC2)C2CCCCC2)c(OC)c2ccccc2c1OC [Compound 2, Dicyclohexyl[1,4-dimethoxy-3-(2-methoxyphenyl)naphthalen-2-yl]phosphane oxide] | 7.78 ± 0.44 | some fibroblast-shaped VERO cells were noticeable | 5.92 ± 0.4 | monolayer of H1Hela was destroyed | > 1000 |  |  |  |  |  |  |
| COc1cc(OC)c(-c2c(P(=O)(C3CCCCC3)C3CCCCC3)c(OC)c3ccccc3c2OC)c(OC)c1 [Compound 1, Dicyclohexyl[1,4-dimethoxy-3-(2,4,6-trimethoxyphenyl)naphthalen-2-yl]phosphane oxide] | 9.82 ± 0.59 | some fibroblast-shaped VERO cells were noticeable | 6.78 ± 0.27 | monolayer of H1Hela was destroyed | > 1000 |  |  |  |  |  |  |
| COc1cc(OC)c(-c2c(P(=O)(C3CCCCC3)C3CCCCC3)c(O)c3ccccc3c2OC)c(OC)c1 [Compound 3, 2-(Dicyclohexylphosphoryl)-4-methoxy-3-(2,4,6-trimethoxyphenyl)naphthalen-1-ol] | 3.11 ± 0.14 | destroyed the cellular monolayer | 3.83 ± 0.33 | destroyed the cellular monolayer | > 1000 | the cellular monolayer resembled the control cells | only a fraction of shrunken cells visible | most of the cells showed cytotoxic damage | the cellular monolayer resembled the control cells | only a fraction of shrunken cells visible | most of the cells showed cytotoxic damage |
